Test results taken from patent US20230212549A1, “COMPOUNDS COMPRISING A […] LIGAND AND USE THEREOF” (priority 2021, published 2023).
Numbered stars: 1 amine (or outer) side, 2 acyl side, 3 side chain; on linkers, the order of the positions; unused ones are H or OH. Bridge positions count the residues as written; N and C are the ends. Square brackets hold non-standard residues; d marks the D form. Peptide text beside a SMILES is read from it. * marks the point of attachment. ξ: configuration not given here. X11 = O=C(O)CN1CCN(CC(=O)O)CCN(C(CCC(=O)NCCSCc2cc(C[*:1])cc(C[*:2])c2)C(=O)O)CC1; X10 = O=C(O)CN1CCN(CC(=O)O)CCN(C(CCC(=O)NCCCOCCOCCOCCCN*)C(=O)O)CC1; NH(1-deoxy-D-glucityl) = OC[C@@H](O)[C@@H](O)[C@H](O)[C@@H](O)CN*; Pro(trans-4-Ph) = O=C(O)[C@@H]1C[C@@H](c2ccccc2)CN1; X3 = NCCNCC(CNCCN)C(=O)NCCCOCCOCCOCCCN*; Met(O2) = CS(=O)(=O)CC[C@H](N)C(=O)O; mXylylene = c1cc(C[*:1])cc(C[*:2])c1; X29 = O=C(CN1CCN([*:1])CC1)[*:2]; 2Thi = N[C@@H](Cc1cccs1)C(=O)O; Pen = CC(C)(S)[C@H](N)C(=O)O; Suc = O=C(CCC(=O)[*:2])[*:1]; Nle = CCCC[C@H](N)C(=O)O; X2 = NCCNCC(CNCCN)C(=O)*; Hexanoyl = CCCCCC(=O)*; ξC = NC(CS)C(=O)O; βAla = NCCC(=O)O

What was measured:
Human recombinant FAP = Human recombinant FAP (Homo sapiens, UniProt Q12884); experiment: FRET-based FAP protease activity assay; assay type: biochemical; set-up: purchased R&D systems 3715-SE
[1] = molecular target: T1, FAP-expressing human WI-38 fibroblasts (Homo sapiens, UniProt Q12884); experiment: Competitive FACS binding assay
T1 construct: FAP-expressing human WI-38 fibroblasts (ECACC) were cultured in EMEM; host or cells: WI-38 human fibroblasts
Procedure: Cells were analyzed in an Attune NxT flow cytometer. […] […].
Cells were analyzed in an Attune NxT flow cytometer. […]

[2] = pIC50 Category (activity), Recombinant human FAP
[3] = pIC50 Category (Activity), FRET-based FAP protease activity assay, recombinant human FAP, 37° C.
[4] = pIC50 Category (Activity), FRET-peptide substrate, 37° C.

T1 sequence (Q12884 whole entry): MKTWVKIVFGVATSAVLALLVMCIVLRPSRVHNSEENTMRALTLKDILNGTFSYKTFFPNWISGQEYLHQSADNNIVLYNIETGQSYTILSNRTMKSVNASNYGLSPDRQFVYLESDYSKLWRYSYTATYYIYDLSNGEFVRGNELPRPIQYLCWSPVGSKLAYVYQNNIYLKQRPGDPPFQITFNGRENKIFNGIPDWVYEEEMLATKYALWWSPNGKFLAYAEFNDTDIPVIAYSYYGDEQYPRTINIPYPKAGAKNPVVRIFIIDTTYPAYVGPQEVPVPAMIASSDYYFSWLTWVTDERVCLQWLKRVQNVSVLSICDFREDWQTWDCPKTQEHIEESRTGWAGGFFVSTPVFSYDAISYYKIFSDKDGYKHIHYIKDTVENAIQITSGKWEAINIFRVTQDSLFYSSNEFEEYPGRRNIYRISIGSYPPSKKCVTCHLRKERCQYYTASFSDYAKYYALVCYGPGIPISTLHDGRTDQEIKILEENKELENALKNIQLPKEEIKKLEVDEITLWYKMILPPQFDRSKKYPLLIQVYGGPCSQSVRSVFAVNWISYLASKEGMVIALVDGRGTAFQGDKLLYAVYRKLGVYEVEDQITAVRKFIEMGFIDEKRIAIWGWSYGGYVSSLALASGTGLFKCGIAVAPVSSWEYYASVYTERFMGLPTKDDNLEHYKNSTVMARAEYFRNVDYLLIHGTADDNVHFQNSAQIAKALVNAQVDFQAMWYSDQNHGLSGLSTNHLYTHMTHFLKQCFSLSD
Sequence of Human recombinant FAP (Q12884 whole entry): as above

IC50 [1] [nM] | IC50 (Human recombinant FAP; [3]) [nM] | IC50 (Human recombinant FAP; [4]) [nM] | Structure (SMILES) | IC50 (Human recombinant FAP; [2]) [nM] | pIC50 Category (FACS) ([1]; FAP-expressing human WI-38 fibroblasts)
> 1000 | 100 to 794 |  | CCCCCC(=O)N[C@H]1CSCc2cccc(c2)CSC[C@@H](C(N)=O)NC(=O)[C@H](Cc2ccccc2)NC(=O)[C@H](CCC(=O)O)NC(=O)[C@H]([C@@H](C)O)NC(=O)[C@@H]2C[C@@H](c3ccccc3)CN2C(=O)[C@@H]2CCCN2C1=O [3BP-3353, Hex-[Cys(3MeBn)-Pro-Eay-Thr-Glu-Phe-Cys]-NH2] (Hexanoyl-CP[Pro(trans-4-Ph)]TEFC-NH2; linker 1-7 via mXylylene) |  | 
> 1000 |  | > 1000 | CCCC[C@H](NC(=O)[C@H](CCC(=O)NC[C@H](O)[C@@H](O)[C@H](O)[C@H](O)CO)NC(=O)CCC(=O)NCCCOCCOCCOCCCNC(=O)C(CNCCN)CNCCN)C(=O)N[C@H]1CSCc2cccc(c2)CSC[C@@H](C(=O)O)NC(=O)[C@H](Cc2ccccc2)NC(=O)[C@H](CCC(=O)O)NC(=O)[C@H]([C@@H](C)O)NC(=O)[C@@H]2CCCN2C(=O)[C@@H]2CCCN2C1=O [3BP-4231, N4Ac-Ttds-Glu(AGLU′)-Nle-[Cys-(3MeBn)-Pro-Pro-Thr-Glu-Phe-Cys]-OH] ({X3-Suc}-E(NH(1-deoxy-D-glucityl))[Nle]CPPTEFC-OH; linker 3-9 via mXylylene) |  | 
> 1000 | > 1000 |  | CCCCCC(=O)N[C@H]1CSCc2cccc(c2)CSC[C@@H](C(N)=O)NC(=O)[C@H](Cc2ccccc2)NC(=O)[C@H](CCS(C)(=O)=O)NC(=O)[C@H]([C@@H](C)O)NC(=O)[C@@H]2CCCN2C(=O)[C@@H]2CCCN2C1=O [3BP-3356, Hex-[Cys(3MeBn)-Pro-Pro-Thr-Moo-Phe-Cys]-NH2] (Hexanoyl-CPPT[Met(O2)]FC-NH2; linker 1-7 via mXylylene) |  | 
< 10 |  |  | CCCCCC(=O)N[C@H]1CSCc2cc(CSCCNC(=O)CN3CCN(CC(=O)O)CCN(CC(N)=O)CCN(CC(=O)O)CC3)cc(c2)CSCC(C(=O)O)NC(=O)[C@H](Cc2ccccc2)NC(=O)[C@H](CCC(N)=O)NC(=O)[C@H]([C@@H](C)O)NC(=O)[C@@H]2CCCN2C(=O)[C@@H]2CCCN2C1=O (stereo partly drawn) [3BP-5288, Hex-[Cys(tMeBn(LSC-AET))-Pro-Pro-Thr-Gln-Phe-Cys]-OH] | < 10 | 
> 1000 | 100 to 794 |  | CCCCCC(=O)N[C@H]1CSCc2cccc(c2)CSC(C)(C)[C@@H](C(N)=O)NC(=O)[C@H](Cc2ccccc2)NC(=O)[C@H](CCC(=O)O)NC(=O)[C@H]([C@@H](C)O)NC(=O)[C@@H]2CCCN2C(=O)[C@@H]2CCCN2C1=O [3BP-3351, Hex-[Cys(3MeBn)-Pro-Pro-Thr-Glu-Phe-Pen]-NH2] (Hexanoyl-CPPTEF[Pen]-NH2; linker 1-7 via mXylylene) |  | 
< 10 | < 10 |  | CSCC[C@H](NC(C)=O)C(=O)N[C@H]1CSCc2cccc(c2)CSC[C@@H](C(=O)N[C@@H](CC(=O)O)C(=O)N[C@@H](Cc2c[nH]cn2)C(=O)N[C@@H](Cc2ccccc2)C(=O)N[C@@H](CCCNC(=N)N)C(=O)N[C@@H](CC(=O)O)C(N)=O)NC(=O)[C@H](Cc2cccs2)NC(=O)[C@H](CCC(=O)O)NC(=O)[C@H]([C@@H](C)O)NC(=O)[C@@H]2CCCN2C(=O)[C@@H]2CCCN2C1=O [3BP-3193, Ac-Met-[Cys(3MeBn)-Pro-Pro-Thr-Glu-Thi-Cys]-Asp-His-Phe-Arg-Asp-NH2] (Ac-MCPPTE[2Thi]CDHFRD-NH2; linker 2-8 via mXylylene) |  | 
100 to 794 | 100 to 794 |  | C[C@@H](O)[C@@H]1NC(=O)[C@@H]2CCCN2C(=O)[C@@H]2CCCN2C(=O)[C@@H](NC(=O)CCCC(=O)O)CSCc2cccc(c2)CSC[C@@H](C(N)=O)NC(=O)[C@H](Cc2ccccc2)NC(=O)[C@H](CCC(N)=O)NC1=O [3BP-3765, HO-Glutar-[Cys(3MeBn)-Pro-Pro-Thr-Gln-Phe-Cys]-NH2] |  | 
10 to 79.4 |  |  | CCCC[C@H](NC(=O)CCC(=O)NCCCOCCOCCOCCCNC(=O)CCC(C(=O)O)N1CCN(CC(=O)O)CCN(CC(=O)O)CC1)C(=O)N[C@H]1CSCc2cccc(c2)CSCC(C(N)=O)NC(=O)[C@H](Cc2ccccc2)NC(=O)[C@H](CCC(=O)O)NC(=O)[C@H]([C@@H](C)O)NC(=O)[C@@H]2CCCN2C(=O)[C@@H]2CCCN2C1=O (stereo partly drawn) [3BP-4743, NODAGA-Ttds-Nle-[Cys(3MeBn)-Pro-Pro-Thr-Glu-Phe-Cys]-NH2] ({X10-Suc}-[Nle]CPPTEF[ξC]-NH2; linker 2-8 via mXylylene) | 10 to 79.4 | 
> 1000 | > 1000 |  | C[C@@H](O)[C@@H]1NC(=O)[C@@H]2CCCN2C(=O)[C@@H]2CCCN2C(=O)[C@@H](NC(=O)CCCCCN)CSCc2cccc(c2)CSC[C@@H](C(N)=O)NC(=O)[C@H](Cc2ccccc2)NC(=O)[C@H](CCC(N)=O)NC1=O [3BP-3759, H-Ahx-[Cys(3MeBn)-Pro-Pro-Thr-Gln-Phe-Cys]-NH2] |  | 
> 1000 | > 1000 |  | CC(=O)N[C@@H](CCCC(=O)O)C(=O)N[C@H]1CSCc2cccc(c2)CSC[C@@H](C(N)=O)NC(=O)[C@H](Cc2ccccc2)NC(=O)[C@H](CCC(N)=O)NC(=O)[C@H]([C@@H](C)O)NC(=O)[C@@H]2CCCN2C(=O)[C@@H]2CCCN2C1=O [3BP-3764, Ac-Aad-[Cys(3MeBn)-Pro-Pro-Thr-Gln-Phe-Cys]-NH2] |  | 
< 10 |  | 10 to 79.4 | COCCCC(=O)N[C@H]1CSCc2cc(CSCCNC(=O)CN3CCN(CC(=O)O)CCN(CC(=O)O)CCN(CC(=O)O)CC3)cc(c2)CSC[C@@H](C(=O)O)NC(=O)[C@H](Cc2ccccc2)NC(=O)[C@H](CCC(N)=O)NC(=O)[C@H]([C@@H](C)O)NC(=O)[C@@H]2CCCN2C(=O)[C@@H]2CCCN2C1=O [3BP-3937, MeOBut-[Cys(tMeBn(DOTA-AET))-Pro-Pro-Thr-Gln-Phe-Cys]-OH] |  | 

Structure (SMILES) | IC50 [1] [nM] | IC50 (Human recombinant FAP; [3]) [nM] | IC50 (Human recombinant FAP; [4]) [nM] | IC50 (Human recombinant FAP; [2]) [nM] | pIC50 Category (FACS) ([1]; FAP-expressing human WI-38 fibroblasts)
CCCC[C@H](NC(=O)CCNC(=O)CN1CCN(C(=O)C(CNCCN)CNCCN)CC1)C(=O)N[C@H]1CSCc2cccc(c2)CSC[C@@H](C(=O)O)NC(=O)[C@H](Cc2ccccc2)NC(=O)[C@H](CCC(=O)O)NC(=O)[C@H]([C@@H](C)O)NC(=O)[C@@H]2CCCN2C(=O)[C@@H]2CCCN2C1=O [3BP-4783, N4Ac-PPAc-Bal--Nle-[C(3MeBn)-PPTEFC]-OH] (X2-[X29][βAla][Nle]CPPTEFC-OH; linker 4-10 via mXylylene) | > 1000 |  |  | > 1000 | 
CCCCCC(=O)N[C@H]1CSCc2cc(CSCCNC(=O)CCC(=O)NCCCOCCOCCOCCCNC(=O)CCCCC3(N(C)CC(=O)O)CN(CC(=O)O)CCN(CC(=O)O)C3)cc(c2)CSC[C@@H](C(=O)O)NC(=O)[C@H](Cc2ccccc2)NC(=O)[C@H](CCC(N)=O)NC(=O)[C@H]([C@@H](C)O)NC(=O)[C@@H]2CCCN2C(=O)[C@@H]2CCCN2C1=O [3BP-4384, Hex-[Cys(tMeBn(DATA-Ttds-AET))-Pro-Pro-Thr-Gln-Phe-Cys]-OH] | 10 to 79.4 |  | 10 to 79.4 | 10 to 79.4 | B (category B for pIC50 values between 7.1 and 8.0)
CCCCCC(=O)N[C@H]1CSCc2cc(CSCCNC(=O)CCC(C(=O)O)N3CCN(CC(=O)O)CCN(CC(=O)O)CC3)cc(c2)CSCC(C(=O)O)NC(=O)[C@H](Cc2ccccc2)NC(=O)[C@H](CCC(=O)O)NC(=O)[C@H]([C@@H](C)O)NC(=O)[C@@H]2CCCN2C(=O)[C@@H]2CCCN2C1=O (stereo partly drawn) [3BP-4695, Hex-[Cys(tMeBn(NODAGA-AET))-Pro-Pro-Thr-Glu-Phe-Cys]-OH] (Hexanoyl-CPPTEF[ξC]-OH; linker 1-7 via X11) | 10 to 79.4 |  |  | 10 to 79.4 | 
